These results are taken from paper PMC6921279 (Frontiers in Endocrinology, 2019).

Assay [1] addresses HA-epitope tagged human CRF1 receptor (human). In words: co-IP; HA-CRF1R immunoprecipitated with anti-HA monoclonal antibody (HA.11) and protein A/G PLUS-Agarose from 1% Nonidet P-40 lysates (50 mM Tris-HCl, 150 mM NaCl, pH 7.4) of transfected COS-7 cells, serum-deprived 24 h, untreated or treated with 100 nM CRF for 10 min at 37°C; blots probed for EGFR and HA, stripped and reprobed for c-Src; densitometry.

Assay [2] addresses epidermal growth factor receptor (African green monkey (endogenous in COS-7)).
Assay [3] relates to CRF1R-mediated Akt phosphorylation. In words: CRF-induced Akt phosphorylation at Ser473 in COS-7 cells expressing HA-CRF1R. Type of assay: cell-based, human. To be noted: 100 nM CRF, 5 min. As to the method: (§1) Plasmid pRK5 encoding the carboxyl terminus of βARK that contains its βγ-binding domain (ct-βARK) was kindly provided by Dr. W. Koch (Center for Translational Medicine, Temple University, Philadelphia, PA), which is a scavenger for G protein βγ subunits ([25]). […] Plasmid pUSEamp encoding dominant-negative Akt-K179M (dn-Akt) was from Upstate Biotechnology (Lake Placid, NY).
(§2) COS-7 cells (from the American Type Culture Collection) were cultured at 37°C in a humidified atmosphere of 95% air, 5% CO2, in DMEM supplemented with 10% FBS, 100 μg/ml streptomycin, and 100 units/ml penicillin (COS-7 growth medium). Transient transfections were performed using LipofectAMINE (Life Technologies: Gaithersburg, MD) as described previously ([27]). Cells were seeded at 8 × 10^5 cells/10-cm dish in COS-7 medium and cultured for 3 days before transfection. COS-7 cells were transfected in 5 ml/dish OptiMEM containing 10 μg/ml LipofectAMINE with empty vector, pcDNA3 encoding the HA-CRF1R or the HA-CRF1R-Δ386 mutant. […] After replacing the transfection medium with fresh growth medium, transfected COS-7 cells were cultured for 1 day. Subsequently, cells were re-seeded in 6-well plates and cultured for an additional day prior to the experiment.
The protocols for measuring total and phosphorylated ERK1/2, c-Src, PYK2, Akt, and EGFR have been previously published ([28], [29]). After cells were cultured to 60–70% confluence, they were serum-deprived for 24 h. On the day of the experiment, cells were treated with the indicated ligands and inhibitors. […] After treatment, cells were placed on ice, the media was aspirated, and the cells were washed twice with ice-cold PBS and lysed in 100 μl of Laemmli sample buffer 1X. The lysates were briefly sonicated, heated at 95°C for 5 min, and centrifuged for 5 min at 14,000 rpm. Resulting supernatants were loaded in separate lanes of a 10% SDS-PAGE gels and electrophoresed. Next, Western transfer on to PDVF membranes was completed. The Western blots were then probed with specific antibodies targeting phosphorylated and non-phosphorylated forms of ERK1/2, c-Src, PYK2, Akt, and EGFR for primary immunodetection. […] The labeled bands were quantified using the Quantity One 4.6.3 software program (Bio-Rad).
Figure 7 CRF mediates Akt activation. […] Total cell lysates were separated by SDS-PAGE and analyzed by immunoblotting with anti-p-Akt Ser^473, as described in Materials and Methods. Akt phosphorylation was quantitated by densitometry, and mean values were plotted from three to five independent experiments. […]

Assay [4] concerns CRF1R-mediated ERK1/2 phosphorylation. In words: Modulation of CRF-stimulated ERK1/2 phosphorylation in COS-7 cells expressing HA-CRF1R. The assay is classed as cell-based. As to the method:
as §1, §2
The protocols for measuring total and phosphorylated ERK1/2, c-Src, PYK2, Akt, and EGFR have been previously published ([28], [29]). After cells were cultured to 60–70% confluence, they were serum-deprived for 24 h. On the day of the experiment, cells were treated with the indicated ligands and inhibitors. […] After treatment, cells were placed on ice, the media was aspirated, and the cells were washed twice with ice-cold PBS and lysed in 100 μl of Laemmli sample buffer 1X. The lysates were briefly sonicated, heated at 95°C for 5 min, and centrifuged for 5 min at 14,000 rpm. Resulting supernatants were loaded in separate lanes of a 10% SDS-PAGE gels and electrophoresed. Next, Western transfer on to PDVF membranes was completed. The Western blots were then probed with specific antibodies targeting phosphorylated and non-phosphorylated forms of ERK1/2, c-Src, PYK2, Akt, and EGFR for primary immunodetection. After blots were probed with horseradish peroxidase-conjugated secondary antibody, protein bands were visualized with enhanced chemiluminescence ECL reagent (Amersham Pharmacia Biotech, Piscataway, NJ or Pierce Biotechnology, Rockford, IL) and scanned using the GS-800 Calibrated Imaging Densitometer (Bio-Rad). The labeled bands were quantified using the Quantity One 4.6.3 software program (Bio-Rad).
Total cell lysates were separated by SDS-PAGE and analyzed by immunoblotting with anti-p-ERK1/2 Thr^202/Tyr^204, as described in Materials and Methods. ERK1/2 phosphorylation was quantitated by densitometry, and mean values were plotted from five independent experiments.
(§3) Total cell lysates were separated by SDS-PAGE and analyzed by immunoblotting with anti-p-ERK1/2 Thr^202/Tyr^204 (A–D) or anti-p-EGFR Tyr^1068 (E), as described in Materials and Methods. ERK1/2 and EGFR phosphorylation were quantitated by densitometry, and mean values were plotted from three to five independent experiments.
Total cell lysates were separated by SDS-PAGE and analyzed by immunoblotting with anti-p-ERK1/2 Thr^202/Tyr^204, as described in Materials and Methods. ERK1/2 phosphorylation was quantitated by densitometry, and mean values were plotted from three to five independent experiments.

The test system of assay [5] is EGF-stimulated ERK1/2 phosphorylation. In words: Modulation of EGF-stimulated ERK1/2 phosphorylation in COS-7 cells. The note with it: GM6001 10 μM, 30 min pretreatment; 10 ng/ml EGF, 10 min. Type of assay: cell-based. As to the method:
as §2, with “Subsequently, cells were re-seeded in 6-well plates and cultured for an additional day prior to the experiment.” left out
(§4) The protocols for measuring total and phosphorylated ERK1/2, c-Src, PYK2, Akt, and EGFR have been previously published ([28], [29]). […] The labeled bands were quantified using the Quantity One 4.6.3 software program (Bio-Rad).
Figure 3 Involvement of EGFR transactivation in CRF-stimulated ERK1/2 phosphorylation. […] Total cell lysates were separated by SDS-PAGE and analyzed by immunoblotting with anti-p-ERK1/2 Thr^202/Tyr^204 (A–D) or anti-p-EGFR Tyr^1068 (E), as described in Materials and Methods. ERK1/2 and EGFR phosphorylation were quantitated by densitometry, and mean values were plotted from three to five independent experiments. […]

Assay [6] has as its system PMA-stimulated ERK1/2 phosphorylation. In words: Modulation of PMA-stimulated ERK1/2 phosphorylation in COS-7 cells. The assay is classed as cell-based. To be noted: GM6001 10 μM, 30 min pretreatment; 100 nM PMA, 15 min. As to the method: COS-7 cells (from the American Type Culture Collection) were cultured at 37°C in a humidified atmosphere of 95% air, 5% CO2, in DMEM supplemented with 10% FBS, 100 μg/ml streptomycin, and 100 units/ml penicillin (COS-7 growth medium). Transient transfections were performed using LipofectAMINE (Life Technologies: Gaithersburg, MD) as described previously ([27]). Cells were seeded at 8 × 10^5 cells/10-cm dish in COS-7 medium and cultured for 3 days before transfection. COS-7 cells were transfected in 5 ml/dish OptiMEM containing 10 μg/ml LipofectAMINE with empty vector, pcDNA3 encoding the HA-CRF1R or the HA-CRF1R-Δ386 mutant. […]
as §4
Figure 2 CRF-induced ERK1/2 phosphorylation is dependent on Gi protein. […] Total cell lysates were separated by SDS-PAGE and analyzed by immunoblotting with anti-p-ERK1/2 Thr^202/Tyr^204, as described in Materials and Methods. ERK1/2 phosphorylation was quantitated by densitometry, and mean values were plotted from five independent experiments. […]
Total cell lysates were separated by SDS-PAGE and analyzed by immunoblotting with anti-p-ERK1/2 Thr202/Tyr204, as described in materials and methods. […]

Assay [7] concerns endogenous EGFR in COS-7 cells. In words: EGF-stimulated ERK1/2 phosphorylation in COS-7 cells expressing HA-CRF1R. The assay is classed as cell-based. As to the method:
COS-7 cells (from the American Type Culture Collection) were cultured at 37°C in a humidified atmosphere of 95% air, 5% CO2, in DMEM supplemented with 10% FBS, 100 μg/ml streptomycin, and 100 units/ml penicillin (COS-7 growth medium). Transient transfections were performed using LipofectAMINE (Life Technologies: Gaithersburg, MD) as described previously ([27]). Cells were seeded at 8 × 10^5 cells/10-cm dish in COS-7 medium and cultured for 3 days before transfection. COS-7 cells were transfected in 5 ml/dish OptiMEM containing 10 μg/ml LipofectAMINE with empty vector, pcDNA3 encoding the HA-CRF1R or the HA-CRF1R-Δ386 mutant. […] After replacing the transfection medium with fresh growth medium, transfected COS-7 cells were cultured for 1 day. […]
as §4, §3

Sequence of epidermal growth factor (P01133 971-1023): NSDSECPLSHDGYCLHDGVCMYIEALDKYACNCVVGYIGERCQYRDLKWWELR

Consider epidermal growth factor receptor, for which, in assay [1], the fold increase of co-precipitated EGFR over control (100 nM CRF, 10 min, against unstimulated cells) stood at 2.5 fold.

The compound “epidermal growth factor (from UniProt P01133 971-1023) (ligand)” returned an EC50 of EGF-induced ERK1/2 phosphorylation, COS-7 cells (endogenous EGFR), EGF 0-100 ng/ml for 10 min, immunoblot densitometry in assay [2] of 0.23 ng/mL.

Regarding `COc1cc2ncnc(Nc3cccc(Cl)c3)c2cc1OC` [AG1478], in assay [3] (AG1478 100 nM), the “decrease of CRF-stimulated Akt phosphorylation” value came to 25%. Further, in assay [4] (AG1478 100 nM, 100 nM CRF, 5 min), the “effect on CRF-stimulated ERK1/2 phosphorylation” value is “abolished phosphorylation of ERK1/2”. Also, the IC50 in assay [4] (COS-7, AG1478 0–1,000 nM, 30 min pretreatment, 100 nM CRF, 5 min, read-out: IC50, inhibition of CRF-stimulated ERK1/2 phosphorylation) was determined as 10 nM. Besides, in assay [4] (Homo sapiens, COS-7, 100 nM AG1478, 30 min pretreatment, 100 nM CRF, 5 min, read-out: inhibition of CRF-induced maximal ERK1/2 phosphorylation), the inhibition at 0.1 µM is approximately 80%.

With “dn-Akt: plasmid pUSEamp encoding dominant-negative Akt-K179M”, in assay [4] (dn-Akt (K179M) co-transfection, 100 nM CRF), the “effect on ERK1/2 activation by CRF” value was “had no significant effect on ERK1/2 activation after stimulation with CRF”.

For `CNC(=O)[C@H](Cc1ccccc1)NC(=O)[C@H](CC(C)C)[C@H](CSc1cccs1)C(=O)NO` [batimastat], in assay [4] (batimastat 5 μM, 30 min pretreatment, 100 nM CRF, 5 min), the “effect on basal and CRF-stimulated ERK1/2 phosphorylation” value was “not altered”.

Take `CNC(=O)[C@H](Cc1c[nH]c2ccccc12)NC(=O)[C@@H](CC(=O)NO)CC(C)C` [GM6001]: in assay [5], the “effect on EGF-induced ERK1/2 phosphorylation” value was “significantly attenuated ERK1/2 phosphorylation induced by PMA but not EGF”. Besides, in assay [4] (GM6001 0–20 μM, 30 min pretreatment, 100 nM CRF, 5 min), the “effect on basal and CRF-stimulated ERK1/2 phosphorylation” value was “not altered”. The “effect on PMA-induced ERK1/2 phosphorylation” value in assay [6] was “significantly attenuated ERK1/2 phosphorylation induced by PMA”.

As to EGF: epidermal growth factor, the “persistence of ERK1/2 phosphorylation” value in assay [7] (10 ng/ml EGF) is given as “at least 30 min”. Also, the “EC50 for EGF-induced ERK1/2 phosphorylation” value in assay [7] (EGF 0–100 ng/ml, 10 min) was 0.23 ng/mL.

As to `Nc1ncnc2c1ncn2[C@@H]1O[C@@H]2COP(O)(=S)O[C@H]2[C@H]1O` (some centres unmarked) [Rp-cAMP], the “effect on CRF-stimulated ERK1/2 activation” value in assay [4] (Rp-cAMP 0–100 μM, 30 min pretreatment, 100 nM CRF, 5 min) is “the magnitude of CRF1R-mediated activation of ERK1/2 was similar”.

As for `O=c1cc(N2CCOCC2)oc2c(-c3ccccc3)cccc12` [LY294002], in assay [3] (LY294002 10 μM, 30 min pretreatment), the “effect on CRF1R-mediated Akt signaling activation” value is reported as “abolished CRF1R-mediated Akt signaling activation”. Besides, the “effect on CRF-stimulated phosphorylation of ERK1/2” value in assay [4] (LY294002 pretreatment (discussion)) is “inhibited CRF-stimulated phosphorylation of ERK1/2 and Akt”.

As for c-Src (enzyme), the fold increase of co-precipitated Src over control (100 nM CRF, 10 min, against unstimulated cells) in assay [1] was found to be 8 fold.
